Experimental findings from patent US9115061B2, “Naphthalene-based inhibitors of anti-apoptotic proteins” (BURNHAM INSTITUTE FOR MEDICAL RESEARCH, priority 2007, dated 2015) are described below.

One data set has as its system B6BCL2 mouse. In words: Spleen weight in B6BCL2 transgenic mice after intraperitoneal injection. The format is in vivo. On the procedure: Transgenic mice expressing BCL-2 have been described as the B6 line. The BCL-2 transgene represents a minigene version of a t(14;18) translocation in which the human BCL-2 gene is fused with the immunoglobulin heavy-chain (IgH) locus and associated IgH enhancer. The transgene was propagated on the Balb/c background.
After 24 hours, B6BCL2 mice were sacrificed by intraperitoneal injection of lethal dose of Avertin. Spleen was removed and weighed. […] Spleen tissue was fixed in z-FIX for 3 days and rinsed in PBS, and saved for histological analysis of spleen (H&E staining and TUNEL assay).

Data set [1] has as its target T1, BCL-XL (Homo sapiens (Human), UniProt Q07817). In words: 1D 1H-NMR binding assay. As to 1D 1H-NMR Binding Assay (BCL-XL): key: +++: Very Active; ++: Active; +: Mild; −: Weak. As to conditions: for 1D 1H-NMR Binding Assay (BCL-XL): 4-point-rating scale, compounds 200 μM, BCL-XL 25 μM. As to the method:
By observing the aliphatic region of the spectra, binding could be readily detected due to chemical shift changes in active site methyl groups of Ile, Leu, Thr, Val or Ala (region between −0.8 and 0.3 ppm). All experiments were performed with a 600 MHz spectrometer Bruker Avance 600 equipped with four rf channels and z-axis pulse-field gradients.

A further data set has as its target GST-Mcl-1 (Homo sapiens (Human), UniProt Q07820). In words: Fluorescence polarization assay (FITC-Bim BH3 peptide). The format is binding. Particulars: for EC50: read-out: EC50 FPA Mcl-1. On the procedure:
After 30 min incubation at room temperature, the polarization values in millipolarization units were measured at excitation/emission wavelengths of 480/535 nm with a multilabel plate reader (PerkinElmer). IC50 was determined by fitting the experimental data to a sigmoidal dose-response nonlinear regression model (SigmaPlot 10.0.1, Systat Software, Inc., San Jose, Calif., USA). Data reported are mean of three independent experiments ±standard error (SE). […] Fluorescence polarization was measured after 10 min.

Another data set relates to RS11846 cell line. In words: Apoptosis, Annexin V and propidium iodide assay. The format is cell-based, human. Particulars: 1-2 days; read-out: RS11846 EC50 (Annexin V- and propidium iodide assay).
Data set [2] in a line: Liver microsomal stability. As to conditions: rat liver microsomes, 4 μM, 60 min. Background: Microsomes from liver hold many membrane-bound enzymes, among them those of drug oxidation.
Description: Pooled rat liver microsomes (BD Biosciences, #452701) were preincubated with test compounds at 37.5° C. for 5 min in the absence of NADPH. The reaction was initiated by addition of NADPH and then incubated under the same conditions. […] One aliquot (100 μL) of the incubation mixture was withdrawn at 0, 15, 30, and 60 min and combined immediately with 200 μL of ACN/MeOH containing an internal standard. After mixing, the sample was centrifuged at approximately 13,000 rpm for 12 min. The supernatant was transferred into an autosampler vial and the amount of test compound was quantified using the Shimadzu LCMS 2010EV mass spectrometer. The change of the AUC (area under the curve) of the parent compound as function of time was used as a measure of microsomal stability.
A short description of a further data set: Plasma stability. The format is in vitro ADME, rat. As to conditions: for Plasma Stability (T = 1 hr): rat plasma, 37.5° C. As to the method:
A 20 μL aliquot of a 10 mM solution in DMSO of the test compound was added to […] of heparinized rat plasma (Lampire, P1-150N) to obtain a 100 μM final solution. The mixture was incubated for 1 h at 37.5° C. Aliquots of 100 μL were taken (0, 30 min, 1 h) and diluted with 200 μL of MeOH containing internal standard.

The target in a further data set is GST-BCL-XL ΔTM protein (Homo sapiens (Human), UniProt Q07817). In words: Competitive fluorescence polarization assay (FITC-Bak BH3 peptide). The format is binding. Particulars: for EC50: Table 3, read-out: EC50 FPA BCL-XL. As to the method: For competitive binding assays, 100 nM GST-BCL-XL ΔTM protein was preincubated with the tested compound at varying concentrations in 47.5 μL PBS (pH=7.4) in 96-well black plates at room temperature for 10 min, then 2.5 μL of 100 nM FITC-labeled Bak BH3 peptide was added to produce a final volume of 50 μL. The wild-type and mutant Bak BH3 peptides were included in each assay plate as positive and negative controls, respectively.
IC50 was determined by fitting the experimental data to a sigmoidal dose-response nonlinear regression model (SigmaPlot 10.0.1, Systat Software, Inc., San Jose, Calif., USA). Data reported are mean of three independent experiments ±standard error (SE). […] Fluorescence polarization was measured after 10 min.
(Polarisation of emitted light reports the rotation of a fluorescent probe.)

For data set [3], the target named is T1, BCL-XL. In words: Isothermal titration calorimetry (ITC). The format is binding. Particulars: for Kd: 25° C., pH 7.4. As to the method:
Titrations were performed using a VP-ITC or ITC200 calorimeter from Microcal (Northampton, Mass.). BCL-XL was used at concentrations between 25 and 100 μM in 20 mM sodium phosphate buffer (pH 7.4) and 5-10% DMSO. Titrants were used at concentrations 10-15× of the protein in the same buffer. Titrations were carried out at 25° C. Data were analyzed using Microcal Origin software provided by the ITC manufacturer (Microcal, Northampton, Mass.).
In general terms: In ITC the heat of successive injections is recorded.

Data set [4] in a line: PAMPA (parallel artificial membrane permeation assay). As to conditions: for Cell Permeability: PAMPA, pH 7.2, 8 h.
Description: PAMPA is parallel artificial membrane permeation assay. A 96-well microtiter plate (Millipore, # MSSACCEPTOR) was completely filled with aqueous buffer solution (pH 7.2) and covered with a microtiter filterplate (Millipore, # MAPBMN310). The hydrophobic filter material was impregnated with a 10% solution of hexadecane in hexane and the organic solvent was allowed to completely evaporate. Permeation studies were started by the transfer of 200 μL of a 100 μM test compound solution on top of the filterplate. In general phosphate buffer at pH 7.2 buffer was used. The maximum DMSO content of the stock solutions was <5%. In parallel, an equilibrium solution lacking a membrane was prepared using the exact concentrations and specifications but lacking the membrane. The concentrations of the acceptor and equilibrium solutions were determined using the Shimadzu LCMS-2010EV and AUC methods. The permeation of a compound through the membrane layer is described by the percentage permeation (% flux). The flux values were calculated considering the concentration of the acceptor compartment after 8 h and that of a reference well with the same concentration containing no membrane barrier.
For a further data set, the system named is H460 cell line. In words: Cell viability, ATP-LITE assay. The format is cell-based, human. As to the method: (§1) The activity of the compounds against human cancer cell lines (PC3ML, H460, H1299, RS11846) were assessed by using the ATP-LITE assay (PerkinElmer). All cells were seeded in either F12 or RPMI1640 medium with 5 mM L-glutamine supplemented with 5% fetal bovine serum (Mediatech Inc.), penicillin and streptomycin (Omega). For maintenance, cells were cultured in 5% FBS. Cells plated into 96 well plates at varying initial densities depending on doubling time. H460 and H1299 plated at 2000 cells/well, A549 and PC3 at 3000 cells/well, and RS118456S at 10,000 cells/well. Compounds were diluted to final concentrations with 0.1% DMSO. Prior to dispensing compounds onto cells, fresh 5% media was placed into wells. Administration of compounds occurred 24 hours after seeding into the fresh media. Cell viability was evaluated using ATP-LITE reagent (PerkinElmer) after 72 hours of treatment. Data were normalized to the DMSO control-treated cells using Prism version 5.01 (Graphpad Software).

The next data set deals with PC3ML cells. In words: Cell viability, ATP-LITE assay. The format is cell-based, human. As to the method: as §1
The next data set concerns the target GST-BCL-2 (Homo sapiens (Human), UniProt P10415). In words: Fluorescence polarization assay (FITC-Bim BH3 peptide). The format is binding. Particulars: for EC50: read-out: EC50 FPA BCL-2. As to the method:
After 30 min incubation at room temperature, the polarization values in millipolarization units were measured at excitation/emission wavelengths of 480/535 nm with a multilabel plate reader (PerkinElmer). IC50 was determined by fitting the experimental data to a sigmoidal dose-response nonlinear regression model (SigmaPlot 10.0.1, Systat Software, Inc., San Jose, Calif., USA). Data reported are mean of three independent experiments ±standard error (SE). Performance of BCL-2 and Mcl-1 FPA are similar. […] Fluorescence polarization was measured after 10 min.

GST-BCL-XL ΔTM protein, sequence (Q07817 1-209): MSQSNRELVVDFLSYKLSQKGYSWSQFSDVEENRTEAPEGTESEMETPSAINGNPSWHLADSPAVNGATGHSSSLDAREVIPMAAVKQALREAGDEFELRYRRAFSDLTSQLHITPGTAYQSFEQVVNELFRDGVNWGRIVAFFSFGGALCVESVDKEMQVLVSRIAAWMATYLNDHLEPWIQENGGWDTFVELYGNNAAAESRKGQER
GST-Mcl-1, sequence (Q07820 whole entry): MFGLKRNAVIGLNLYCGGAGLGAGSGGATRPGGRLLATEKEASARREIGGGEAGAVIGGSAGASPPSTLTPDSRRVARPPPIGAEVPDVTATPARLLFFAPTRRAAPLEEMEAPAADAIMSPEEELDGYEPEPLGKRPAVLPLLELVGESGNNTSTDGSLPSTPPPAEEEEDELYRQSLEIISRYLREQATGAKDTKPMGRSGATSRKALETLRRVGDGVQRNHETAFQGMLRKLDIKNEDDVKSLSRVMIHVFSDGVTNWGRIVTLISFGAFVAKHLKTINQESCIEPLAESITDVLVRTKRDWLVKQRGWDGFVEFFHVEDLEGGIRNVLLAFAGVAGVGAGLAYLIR
T1 sequence (Q07817 whole entry): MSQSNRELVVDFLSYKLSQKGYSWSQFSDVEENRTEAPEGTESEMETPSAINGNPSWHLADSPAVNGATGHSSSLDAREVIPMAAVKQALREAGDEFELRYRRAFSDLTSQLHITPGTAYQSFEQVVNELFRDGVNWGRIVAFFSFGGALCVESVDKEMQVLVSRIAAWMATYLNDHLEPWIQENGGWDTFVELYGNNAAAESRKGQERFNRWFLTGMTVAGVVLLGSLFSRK
GST-BCL-2, sequence (P10415 whole entry): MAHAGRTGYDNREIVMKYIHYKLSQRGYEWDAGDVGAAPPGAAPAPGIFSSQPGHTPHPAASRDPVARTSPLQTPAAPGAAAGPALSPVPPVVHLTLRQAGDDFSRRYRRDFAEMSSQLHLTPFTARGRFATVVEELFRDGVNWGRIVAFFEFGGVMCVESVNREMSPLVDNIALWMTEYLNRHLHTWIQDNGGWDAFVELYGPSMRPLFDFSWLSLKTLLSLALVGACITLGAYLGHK
Description for RS11846 cell line: The apoptotic activity of the compounds against RS11846 cells was assessed by staining with Annexin V- and propidium iodide (PI). Lymphoma cell line, RS11846, was cultured in RPMI 1640 medium (Mediatech Inc., Herndon, Va. 20171) containing 10% fetal bovine serum (Mediatech Inc., Herndon, Va. 20171) and Penicillin/Streptomycin (Mediatech Inc., Herndon, Va. 20171). […] The percentage of viable cells was determined by FITC-Annexin V- and propidium iodide (PI)-labeling, using an Apoptosis Detection kit (BioVision Inc.), and analyzing stained cells by flow cytometry (FACSort; Bectin-Dickinson, Inc.; Mountain View, Calif.). Cells that were annexin-V-negative and PI-negative were considered viable.

Take `Cc1cc2c(C(=O)Cc3ccccc3)c(O)c(O)cc2c(O)c1-c1c(C)cc2c(C(=O)Cc3ccccc3)c(O)c(O)cc2c1O` [Compound I, 1,1′-(1,1′,6,6′,7,7′-hexahydroxy-3,3′-dimethyl-2,2′-binaphthyl-5,5′-diyl)bis(2-phenylethanone)]: the macroscopic toxicity entry in the data set with B6BCL2 mouse (mouse, in vivo) is on record as “no macroscopic toxicity”. Besides, the “reduction in spleen weight, single mouse” value in the data set on B6BCL2 mouse (single BCL-2 transgenic mouse, 60 μmol/kg, intraperitoneal, 24 hours) came to 40%. Also, the “reduction of spleen weight, groups of six mice” value with B6BCL2 mouse (six mice, P<0.0001 vs control) is recorded as roughly 40%. Also, the “chemical shift changes in active site methyl groups of BCL-XL” value on BCL-XL [1] (1D 1H-NMR spectra) was “significant chemical shift changes”. The “1D 1H-NMR Binding Assay (BCL-XL)” value on BCL-XL [1] is reported as “+++”. At GST-Mcl-1, the “fold more potent than apogossypol, Mcl-1 FPA” value was roughly 5 fold and the EC50 came out at 520 nM. In the data set with RS11846 cell line, the EC50 worked out at 4900 nM. The “Microsomal Stability (T = 1 hr)” value in data set [2] came to 64%. In addition, the “degraded after 1 hour incubation in rat plasma” value in the data set “Plasma stability” (1 hour) came to 15%. In “Plasma stability”, the “Plasma Stability (T = 1 hr)” value is 85%. Besides, on GST-BCL-XL ΔTM protein, the “times more effective than apogossypol, FP displacement BCL-XL” value is recorded as roughly 20 times and the EC50 came out at 190 nM. Moreover, on BCL-XL [3], the “times more potent than apogossypol, Kd ITC BCL-XL” value is 10 times and the affinity, expressed as Kd, was 170 nM. Besides, in data set [4], the “cell membrane permeability compared to apogossypol” value is “improved” and the “Cell Permeability” value is “Medium”. Also, in the data set with H460 cell line, the “times more potent than apogossypol, H460 EC50” value is 4-5 times. Besides, the “fold more potent than apogossypol, PC3ML EC50” value in the data set on PC3ML cells was 2-5 fold. At GST-BCL-2, the “fold more potent than apogossypol, BCL-2 FPA” value is “approximately 8 fold” and the EC50 is 360 nM.

As for `Cc1cc2c(C(=O)c3cccc4ccccc34)c(O)c(O)cc2c(O)c1-c1c(C)cc2c(C(=O)c3cccc4ccccc34)c(O)c(O)cc2c1O` [Compound VIII, (1,1′,6,6′,7,7′-hexahydroxy-3,3′-dimethyl-2,2′-binaphthyl-5,5′-diyl)bis(naphthalen-1-ylmethanone)], at BCL-XL [1], the “1D 1H-NMR Binding Assay (BCL-XL)” value is on record as “+”. The EC50 at GST-Mcl-1 was found to be 2200 nM; in the data set with RS11846 cell line, 4200 nM; on GST-BCL-XL ΔTM protein, 160 nM; on GST-BCL-2 it was 1900 nM. In data set [2], the “Microsomal Stability (T = 1 hr)” value was found to be 52%. Moreover, in “Plasma stability”, the “Plasma Stability (T = 1 hr)” value was 62%. On BCL-XL [3], this molecule had a Kd of 2750 nM. Besides, the “Cell Permeability” value in data set [4] is reported as “Low”.

A word on the EC50: it is the concentration giving half of the maximal effect. The term Kd denotes the free concentration of one partner at which half of the binding sites on the other are occupied at equilibrium, for simple one-to-one binding. A higher Kd goes with a looser complex.
